Active and inactive are the calls of the source. The rule behind the calls is not given here.
Legend:
Histone deacetylase 2 [1] = target: T1, Histone deacetylase 2 (Homo sapiens, UniProt Q92769); experiment: Inhibition of HDAC2 (unknown origin) using 6-carboxyfluorescein peptide as substrate preincubated with compound for 2 hrs followed by substrate addition by electrophoretic mobility shift assay
Histone deacetylase 2 [2] = target: T1, Histone deacetylase 2; experiment: Inhibition of HDAC2 (unknown origin) using 6-carboxyfluorescein peptide as substrate preincubated with compound followed by substrate addition by electrophoretic mobility shift assay
Histone deacetylase 11 = target: T2, Histone deacetylase 11 (Homo sapiens, UniProt Q96DB2); experiment: Inhibition of full length recombinant human HDAC11 expressed in Sf9 cells using 6-carboxyfluorescein peptide as substrate preincubated with compound for 6 hrs followed by substrate addition and measured after 17 hrs by electrophoretic mobility shift assay
T2 sequence (Q96DB2 whole entry): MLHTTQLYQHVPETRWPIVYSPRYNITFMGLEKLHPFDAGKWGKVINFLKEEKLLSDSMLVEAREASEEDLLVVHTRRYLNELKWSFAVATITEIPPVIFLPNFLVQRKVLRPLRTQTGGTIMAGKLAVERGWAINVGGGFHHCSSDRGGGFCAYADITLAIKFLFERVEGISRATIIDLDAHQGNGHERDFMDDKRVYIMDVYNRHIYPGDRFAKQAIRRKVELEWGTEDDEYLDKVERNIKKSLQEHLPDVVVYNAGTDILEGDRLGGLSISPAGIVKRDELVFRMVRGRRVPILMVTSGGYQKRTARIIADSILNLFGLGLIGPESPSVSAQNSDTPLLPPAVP

Histone deacetylase 2 [3] = target: T1, Histone deacetylase 2; experiment: Inhibition of HDAC2 (unknown origin) using 6-carboxyfluorescein peptide as substrate preincubated with compound for 6 hrs followed by substrate addition by electrophoretic mobility shift assay
Histone deacetylase 1 [4] = target: T3, Histone deacetylase 1 (Homo sapiens, UniProt Q13547); experiment: Inhibition of HDAC1 (unknown origin) using 6-carboxyfluorescein peptide as substrate preincubated with compound for 6 hrs followed by substrate addition by electrophoretic mobility shift assay
Histone deacetylase 1 [5] = target: T3, Histone deacetylase 1; experiment: Inhibition of HDAC1 (unknown origin) using 6-carboxyfluorescein peptide as substrate preincubated with compound followed by substrate addition by electrophoretic mobility shift assay
[6] = target: Histone deacetylase 2 (Mus musculus) (UniProt P70288); experiment: Inhibition of HDAC2 in mouse C2C12 cells at 5 uM incubated for 72 hrs by immunofluorescence analysis; format: cell-based
Histone deacetylase 8 = target: T4, Histone deacetylase 8 (Homo sapiens, UniProt Q9BY41); experiment: Inhibition of full length recombinant human HDAC8 expressed in Sf9 cells using 6-carboxyfluorescein peptide as substrate preincubated with compound followed by substrate addition and measured after 3 hrs by electrophoretic mobility shift assay
T4 sequence (Q9BY41 whole entry): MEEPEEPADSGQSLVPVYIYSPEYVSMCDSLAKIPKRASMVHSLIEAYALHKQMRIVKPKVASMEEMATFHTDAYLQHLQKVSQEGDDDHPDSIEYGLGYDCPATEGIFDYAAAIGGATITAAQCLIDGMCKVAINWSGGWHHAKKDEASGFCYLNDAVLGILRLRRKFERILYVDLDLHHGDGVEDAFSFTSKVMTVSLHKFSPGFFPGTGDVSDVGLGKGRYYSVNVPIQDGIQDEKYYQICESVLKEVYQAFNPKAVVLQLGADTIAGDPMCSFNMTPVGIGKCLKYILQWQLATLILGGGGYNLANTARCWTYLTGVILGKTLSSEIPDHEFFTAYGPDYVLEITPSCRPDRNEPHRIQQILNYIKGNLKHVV

MV4-11 [7] = experiment: Induction of apoptosis in human MV4-11 cells assessed as healthy cells at 1 uM measured after 6 hrs by annexin V-FITC/PI staining based FACS assay (reference value: 63.50%); format: functional
Histone deacetylase 4 = Histone deacetylase 4 (Homo sapiens, UniProt P56524); experiment: Inhibition of HDAC4 (unknown origin) using 6-carboxyfluorescein peptide as substrate preincubated with compound for 6 hrs followed by substrate addition by electrophoretic mobility shift assay
[8] = target: T5, Protein deacetylase HDAC6 (Homo sapiens, UniProt Q9UBN7); experiment: Inhibition of full length recombinant human HDAC6 expressed in Sf9 cells using 6-carboxyfluorescein peptide as substrate preincubated with compound for 6 hrs followed by substrate addition and measured after 5 hrs by electrophoretic mobility shift assay
T5 sequence (Q9UBN7 whole entry): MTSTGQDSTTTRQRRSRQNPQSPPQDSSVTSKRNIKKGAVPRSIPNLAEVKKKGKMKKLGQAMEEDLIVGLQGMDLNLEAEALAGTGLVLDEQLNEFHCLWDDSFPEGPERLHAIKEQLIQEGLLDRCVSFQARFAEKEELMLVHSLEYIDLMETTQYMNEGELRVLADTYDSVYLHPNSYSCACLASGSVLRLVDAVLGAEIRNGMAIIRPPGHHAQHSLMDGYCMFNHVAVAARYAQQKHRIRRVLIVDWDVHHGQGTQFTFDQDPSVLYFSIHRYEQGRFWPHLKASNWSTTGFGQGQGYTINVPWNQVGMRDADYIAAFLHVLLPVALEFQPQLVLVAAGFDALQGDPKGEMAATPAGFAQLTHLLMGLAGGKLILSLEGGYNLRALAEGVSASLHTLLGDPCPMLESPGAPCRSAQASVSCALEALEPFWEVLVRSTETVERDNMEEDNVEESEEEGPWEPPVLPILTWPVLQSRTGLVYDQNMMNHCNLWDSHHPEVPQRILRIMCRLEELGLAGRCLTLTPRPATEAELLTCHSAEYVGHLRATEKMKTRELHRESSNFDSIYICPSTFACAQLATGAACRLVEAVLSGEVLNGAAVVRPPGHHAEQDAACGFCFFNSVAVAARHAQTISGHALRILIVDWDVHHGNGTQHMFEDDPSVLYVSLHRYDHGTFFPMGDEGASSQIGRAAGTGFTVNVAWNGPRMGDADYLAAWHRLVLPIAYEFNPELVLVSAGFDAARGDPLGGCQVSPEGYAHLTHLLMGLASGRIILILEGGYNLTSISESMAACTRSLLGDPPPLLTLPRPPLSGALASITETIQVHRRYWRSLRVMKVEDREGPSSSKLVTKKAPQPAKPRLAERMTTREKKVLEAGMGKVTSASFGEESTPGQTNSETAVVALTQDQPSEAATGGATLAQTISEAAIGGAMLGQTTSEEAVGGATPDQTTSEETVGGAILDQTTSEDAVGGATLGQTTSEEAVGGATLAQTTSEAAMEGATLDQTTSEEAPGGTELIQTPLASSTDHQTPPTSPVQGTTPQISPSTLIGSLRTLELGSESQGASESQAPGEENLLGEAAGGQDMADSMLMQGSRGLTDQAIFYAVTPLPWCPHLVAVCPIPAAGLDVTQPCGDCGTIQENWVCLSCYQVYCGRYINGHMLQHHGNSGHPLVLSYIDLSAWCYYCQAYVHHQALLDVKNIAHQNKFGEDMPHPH

[9] = Glutathione reactivity assessed as compound consumption at 500 nM measured after 1 to 3 hrs by LC-MS/MS analysis; format: ADME; settings: glutathione solution, time 1-3 hrs, read-out: Activity
MV4-11 [10] = experiment: Induction of apoptosis in human MV4-11 cells assessed as healthy cells at 4 uM measured after 6 hrs by annexin V-FITC/PI staining based FACS assay (reference value: 63.50%); format: functional

T1 sequence (Q92769 whole entry): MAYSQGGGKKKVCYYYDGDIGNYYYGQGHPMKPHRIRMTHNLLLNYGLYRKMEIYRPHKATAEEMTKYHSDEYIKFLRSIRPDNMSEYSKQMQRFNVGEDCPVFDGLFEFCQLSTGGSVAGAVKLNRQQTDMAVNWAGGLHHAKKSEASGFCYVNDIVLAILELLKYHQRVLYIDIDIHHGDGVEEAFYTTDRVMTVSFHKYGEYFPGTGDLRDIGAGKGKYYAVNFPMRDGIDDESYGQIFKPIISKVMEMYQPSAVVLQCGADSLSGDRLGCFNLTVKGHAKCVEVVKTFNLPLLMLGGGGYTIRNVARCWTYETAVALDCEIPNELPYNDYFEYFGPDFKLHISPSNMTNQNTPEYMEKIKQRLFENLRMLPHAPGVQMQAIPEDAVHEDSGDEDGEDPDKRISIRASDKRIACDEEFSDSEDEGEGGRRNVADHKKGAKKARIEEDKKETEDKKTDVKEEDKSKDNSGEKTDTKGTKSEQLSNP
T3 sequence (Q13547 whole entry): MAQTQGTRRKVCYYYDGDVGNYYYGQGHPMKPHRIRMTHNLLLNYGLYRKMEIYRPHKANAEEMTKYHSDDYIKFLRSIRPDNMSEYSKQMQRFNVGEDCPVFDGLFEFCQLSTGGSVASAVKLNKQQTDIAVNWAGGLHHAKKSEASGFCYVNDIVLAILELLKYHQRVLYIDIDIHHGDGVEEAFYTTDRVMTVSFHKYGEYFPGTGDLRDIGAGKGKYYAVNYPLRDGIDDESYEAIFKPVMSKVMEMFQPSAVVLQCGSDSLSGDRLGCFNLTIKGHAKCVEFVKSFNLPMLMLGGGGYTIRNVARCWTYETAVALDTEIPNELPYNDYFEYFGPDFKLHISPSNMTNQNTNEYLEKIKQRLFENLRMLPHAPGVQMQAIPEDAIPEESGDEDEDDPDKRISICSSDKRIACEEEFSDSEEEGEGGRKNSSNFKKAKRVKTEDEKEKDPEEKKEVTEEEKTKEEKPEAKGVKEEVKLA
Sequence of Histone deacetylase 4 (P56524 whole entry): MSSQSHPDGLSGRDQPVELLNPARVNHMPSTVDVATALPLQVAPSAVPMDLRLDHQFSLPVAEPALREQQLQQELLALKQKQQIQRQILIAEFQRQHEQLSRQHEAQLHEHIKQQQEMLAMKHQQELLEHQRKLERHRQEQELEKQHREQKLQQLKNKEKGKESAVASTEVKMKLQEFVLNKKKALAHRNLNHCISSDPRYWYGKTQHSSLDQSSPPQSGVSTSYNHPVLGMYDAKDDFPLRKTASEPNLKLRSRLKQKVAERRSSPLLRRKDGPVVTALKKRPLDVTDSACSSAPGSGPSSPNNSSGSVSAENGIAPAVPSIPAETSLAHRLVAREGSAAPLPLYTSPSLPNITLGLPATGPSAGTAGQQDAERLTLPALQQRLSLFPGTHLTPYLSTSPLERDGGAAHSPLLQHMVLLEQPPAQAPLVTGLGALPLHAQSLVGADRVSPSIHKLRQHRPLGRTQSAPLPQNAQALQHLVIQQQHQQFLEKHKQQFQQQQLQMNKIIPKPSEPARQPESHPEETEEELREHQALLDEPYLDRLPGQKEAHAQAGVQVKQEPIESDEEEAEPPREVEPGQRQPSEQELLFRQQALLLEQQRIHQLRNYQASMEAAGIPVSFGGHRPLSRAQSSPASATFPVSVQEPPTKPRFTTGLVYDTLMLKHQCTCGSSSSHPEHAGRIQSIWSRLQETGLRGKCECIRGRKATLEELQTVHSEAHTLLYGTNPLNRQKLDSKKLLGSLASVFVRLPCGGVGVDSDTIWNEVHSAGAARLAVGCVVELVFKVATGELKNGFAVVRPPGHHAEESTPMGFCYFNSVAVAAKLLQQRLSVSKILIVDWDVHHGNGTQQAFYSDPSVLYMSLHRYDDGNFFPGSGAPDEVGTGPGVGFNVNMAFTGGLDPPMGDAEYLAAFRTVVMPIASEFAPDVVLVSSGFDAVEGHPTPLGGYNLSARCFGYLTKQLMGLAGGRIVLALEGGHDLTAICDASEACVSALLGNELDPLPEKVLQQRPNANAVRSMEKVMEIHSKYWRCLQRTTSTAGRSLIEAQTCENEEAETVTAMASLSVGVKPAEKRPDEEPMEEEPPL
Sequence of Histone deacetylase 2 (Mus musculus) (P70288 whole entry): as the sequence (Q92769 whole entry) above, with V289A, T477P, T480A counted along it

- IC50 (Histone deacetylase 2 [1]): 327 nM
- IC50 (Histone deacetylase 2 [2]): 808 nM
- IC50 (Histone deacetylase 11): > 2000 nM
- IC50 (Histone deacetylase 2 [3]): 154 nM
- IC50 (Histone deacetylase 1 [4]): 109 nM
- IC50 (Histone deacetylase 1 [5]): 242 nM
- inhibition [6]: Active
- IC50 (Histone deacetylase 8): > 10000 nM
- IC50 (Histone deacetylase 4): > 10000 nM
- IC50 [8]: > 10000 nM
- degraded at 0.5 µM [9]: > 50%
SMILES: Nc1ccccc1NC(=O)c1ccc(CNC(=O)OC2CCN(S(=O)(=O)c3c(F)c(F)c(F)c(F)c3F)CC2)cc1
- Activity (MV4-11 [7]): 23.54%
- Activity (MV4-11 [10]): 4.57%
